Experimental findings from ChEMBL document CHEMBL4257534, “Curcumin-based pyrazoline analogues as selective inhibitors of human monoamine oxidase A” (Medchemcomm, 2018) are described below.

For one data set, the species on record is Homo sapiens. The data set can be described thus: Selectivity index, ratio of Ki for recombinant human MAO-B to Ki for recombinant human MAO-A.
A short description of data set [1]: Cytotoxicity against human HepG2 cells assessed as cell viability at 1 uM after 24 hrs by MTT assay relative to control. Format: cell-based. The settings on record: read-out: Activity.
Data set [2] deals with T1, Amine oxidase [flavin-containing] A (Homo sapiens, UniProt P21397).
T1 sequence (P21397 whole entry): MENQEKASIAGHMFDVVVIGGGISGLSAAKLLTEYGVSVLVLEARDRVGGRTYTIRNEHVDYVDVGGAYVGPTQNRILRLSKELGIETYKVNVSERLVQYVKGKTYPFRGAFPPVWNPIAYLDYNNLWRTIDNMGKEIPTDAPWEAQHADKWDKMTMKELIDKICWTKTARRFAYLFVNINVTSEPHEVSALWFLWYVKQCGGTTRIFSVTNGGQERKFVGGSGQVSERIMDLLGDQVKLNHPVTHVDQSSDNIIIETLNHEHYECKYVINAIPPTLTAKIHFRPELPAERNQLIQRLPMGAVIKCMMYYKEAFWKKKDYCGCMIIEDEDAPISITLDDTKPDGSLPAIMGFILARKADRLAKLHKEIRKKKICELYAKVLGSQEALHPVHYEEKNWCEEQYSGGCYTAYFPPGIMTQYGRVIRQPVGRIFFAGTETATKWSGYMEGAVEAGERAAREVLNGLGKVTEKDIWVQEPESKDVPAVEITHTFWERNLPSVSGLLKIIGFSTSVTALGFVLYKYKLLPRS
The data set can be described thus: Reversible inhibition of recombinant human MAO-A assessed as enzyme activity recovery at 5 time Ki value preincubated for 15 mins followed by dilution of enzyme-inhibitor mixture for 24 hrs and subsequent p-tyramine substrate addition by dialysis method.

For data set [3], the target named is T2, Amine oxidase [flavin-containing] B (Homo sapiens, UniProt P27338).
T2 sequence (P27338 whole entry): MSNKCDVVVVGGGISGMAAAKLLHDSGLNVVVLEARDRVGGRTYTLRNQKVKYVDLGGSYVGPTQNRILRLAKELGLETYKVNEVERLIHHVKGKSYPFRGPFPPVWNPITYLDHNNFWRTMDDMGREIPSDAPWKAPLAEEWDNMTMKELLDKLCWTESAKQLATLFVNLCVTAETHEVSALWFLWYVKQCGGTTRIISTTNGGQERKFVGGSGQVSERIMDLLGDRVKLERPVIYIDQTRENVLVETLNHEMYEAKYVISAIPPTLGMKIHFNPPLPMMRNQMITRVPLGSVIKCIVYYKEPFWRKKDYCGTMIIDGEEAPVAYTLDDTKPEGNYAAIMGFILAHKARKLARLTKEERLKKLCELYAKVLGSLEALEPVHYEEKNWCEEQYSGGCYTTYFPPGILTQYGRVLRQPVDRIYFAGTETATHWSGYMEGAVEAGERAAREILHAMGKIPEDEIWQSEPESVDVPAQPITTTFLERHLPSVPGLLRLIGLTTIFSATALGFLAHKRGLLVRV
Description: Inhibition of recombinant human MAO-B assessed as reduction in H2O2 production preincubated for 30 mins followed by p-tyramine substrate addition measured after 30 mins by amplex red reagent based fluorescence assay

A short description of data set [4]: Cytotoxicity against human HepG2 cells assessed as cell viability at 25 uM after 24 hrs by MTT assay relative to control. The format is cell-based. The settings on record: read-out: Activity.
Data set [5] has as its target T1, Amine oxidase [flavin-containing] A. Briefly: Inhibition of recombinant human MAO-A assessed as reduction in H2O2 production preincubated for 30 mins followed by p-tyramine substrate addition measured after 30 mins by amplex red reagent based fluorescence assay.
Data set [6] is described as follows: Cytotoxicity against human HepG2 cells assessed as cell viability at 5 uM after 24 hrs by MTT assay relative to control. The settings on record: read-out: Activity. Format: cell-based.
The target in data set [7] is T1, Amine oxidase [flavin-containing] A. The data set can be described thus: Competitive inhibition of recombinant human MAO-A assessed as reduction in H2O2 production preincubated for 30 mins followed by p-tyramine substrate addition measured after 30 mins by Lineweaver-Burk plot analysis. The settings on record: 0.5 h.
A further data set in a line: in vitro. The settings on record: PAMPA. For orientation: The PAMPA barrier holds no transporters, so it reflects passive diffusion.
In data set [8] the target is T1, Amine oxidase [flavin-containing] A. Briefly: Irreversible inhibition of recombinant human MAO-A at 5 time Ki value preincubated for 15 mins followed by dilution of enzyme-inhibitor mixture for 24 hrs and subsequent p-tyramine substrate addition by dialysis method.
Data set [9] has the same target. Briefly: Suicide inhibition of recombinant human MAO-A assessed as reduction in H2O2 production preincubated for 30 mins followed by p-tyramine substrate addition measured after 30 mins by Lineweaver-Burk plot analysis. The settings on record: 0.5 h.

Description for in vitro: Permeability of the compound at 50 ug/ml after 16 hrs by PAMPA

As a reminder, the Ki is a measure of affinity in units of concentration, obtained from inhibition or displacement. On to `COc1cc(C2=NN(C(=O)Oc3ccccc3)C(c3ccc(Cl)cc3)C2)ccc1O` (configuration not stated), for which the Ratio Ki in the data set filed under Homo sapiens is 29.9. Further, the viability at 24 h, 1 µM in data set [1] was determined as 93.1%. Further, the “inhibition (INH)” value in data set [2] and in data set [7] was “Active” in each case. Moreover, the Ki in data set [3] is 5770 µM; in [5] it was 193 µM. Besides, the viability at 24 h, 25 µM in data set [4] came to 77%. Moreover, the viability at 24 h, 5 µM in data set [6] was 81.7%.
As a reminder, the Papp is the rate of passage across a membrane or cell layer, normalised by area and donor concentration. Read a low Papp as poor permeation. In the case of `CCn1cc(C(=O)O)c(=O)c2cc(F)c(N3CCNC(C)C3)c(F)c21` (configuration not stated) [LOMEFLOXACIN], in the data set “in vitro”, the Papp at 16 h, 50 ug/ml is 1.24 ×10⁻⁶ cm/s.
As for `COc1cc(C2=NN(C(=S)Nc3ccccc3)C(c3ccc(Cl)cc3)C2)ccc1O` (configuration not stated), the Ratio Ki in the data set listed under Homo sapiens was determined as 244. In addition, the viability at 24 h, 1 µM in [1] was 95%. Moreover, the “inhibition (INH)” value in data set [2] and in [7] was “Active” in each case. The figures for the Ki in data set [3] and in data set [5] were 4770 µM and 19.6 µM, respectively. For the same molecule, the viability at 24 h, 25 µM in data set [4] turned out to be 80.3%. The viability at 24 h, 5 µM in [6] was 88.2%. For the same molecule, the Papp at 16 h, 50 ug/ml in the data set “in vitro” was 9.55 ×10⁻⁶ cm/s.
Regarding `O=C(NCCN1CCOCC1)c1ccc(Cl)cc1` [MOCLOBEMIDE], the “inhibition (INH)” value in [2] and in data set [7] was “Active” in each case.
Regarding `NCCNC(=O)c1ccc(Cl)cn1` [LAZABEMIDE], the “inhibition (INH)” value in data set [2] and in data set [7] was “Active” each time. Further, the Ki in data set [5] is 7900 µM.
For `COc1cc(C2=NN(C(=O)c3ccccc3)C(c3ccc(Cl)cc3)C2)ccc1O` (configuration not stated), the Ratio Ki in the data set filed under Homo sapiens was 229. Also, the viability at 24 h, 1 µM in data set [1] was found to be 90%. Besides, the “inhibition (INH)” value in [2] and in data set [7] was “Active” throughout. The Ki in data set [3] came out at 6000 µM; in [5], 26.2 µM. In addition, in data set [4], the viability at 24 h, 25 µM is 78.2%. The viability at 24 h, 5 µM in [6] is 86.3%.
`COc1cc(C2=NN(S(=O)(=O)c3ccc(C)cc3)C(c3ccc(Cl)cc3)C2)ccc1O` (configuration not stated): the Ratio Ki in the data set listed under Homo sapiens is 150. The viability at 24 h, 1 µM in data set [1] was 91.2%. Besides, the “inhibition (INH)” value in data set [2] and in [7] was “Active” each time. Further, the Ki in data set [3] came out at 6000 µM; in data set [5], 40 µM. Besides, in [4], the viability at 24 h, 25 µM was 64.1%. Further, the viability at 24 h, 5 µM in [6] came out at 79.5%. The molecule also had a Papp at 16 h, 50 ug/ml in the data set “in vitro” of 12 ×10⁻⁶ cm/s.
For the molecule `COc1cc(C2=NNC(c3ccc(Cl)cc3)C2)ccc1O` (configuration not stated), the Ratio Ki in the data set filed under Homo sapiens is 1750. In addition, the viability at 24 h, 1 µM in [1] amounted to 99%. Also, the “inhibition (INH)” value in data set [2] and in [7] was “Active” throughout. Also, the results for the Ki in [3] and in [5] were 140 µM and 0.08 µM, respectively. Also, the viability at 24 h, 25 µM in [4] was determined as 90.2%. Besides, the viability at 24 h, 5 µM in [6] turned out to be 94.5%. In the data set “in vitro”, this molecule registered a Papp at 16 h, 50 ug/ml of 13.9 ×10⁻⁶ cm/s.
For `C#CCN(C)[C@H](C)Cc1ccccc1` [SELEGILINE], the “inhibition (INH)” value in data set [8] and in data set [9] was “Active” throughout.
Consider `C[C@]12CC[C@@H]3c4ccc(O)cc4CC[C@H]3[C@@H]1CC[C@@H]2O` [ESTRADIOL], for which the Papp at 16 h, 50 ug/ml in the data set “in vitro” was 11.8 ×10⁻⁶ cm/s.
